pEC50: −log10 of the molar value. Values after ≈ are worked out from the molar mass of the structure shown. Values joined by “and” are separate entries in the source; they are usually repeats but may differ in a detail not shown here. Equal values may be shown once. Read-outs that look alike come from different tables or passages of the source.
Columns and labels:
Vibrio fischen = settings: cited from earlier work
[1] = tested on: bacteria phosphotransferase system (PTS) of E. coli mutant 1219bgl+; assay: microbe, parasite or virus in culture; assay type: cell-based; settings: for EC50 / IC50: 5 min; for IC50: pH 6.5, read-out: EC50
Source text: Since the phosphotransferase system for the bacterial cell is an essential transport system for the reception of extracellular carbohydrates, a possible inhibition or adverse effect of the participating enzymes should be noticed to cause a reduction in the carbohydrate transport, that is the PTS constitutes a potential possibility for the detection of toxic substances in microorganisms. […] Said analog is of such a nature that it, in phosphorylated form after the cell transport, can be hydrolyzed by an enzyme in the bacterial cell under the release of a substance susceptible to analysis. If, for instance, 2-nitrophenyl-β-D-glucoside is used as substrate analog, this will be channeled by the PTS under phosphorylation into a bacterial cell, where the ONP-Glc-6-P is broken down hydrolytically by the inducible 6-phospho-β-glucosidase B to Glc-6-P and 2-nitrophenyl. The released 2-nitrophenyl can then, by means of photometry, be quantitatively measured as phenolate-anion after a defined time span. Additionally, with E. coli mutant 1219bgl+ a bacterium is present that is characterized by increased β-glycoside activity, yet is not transformed through genetic engineering nor is pathogenic, which is an important prerequisite for harmless work with bacteria.
The test occurs with a total reaction volume of 500 μl in Eppendorf cups, the O.D.578 of the bacteria suspension amounting to 3.0.
The E. coli cultures of the mutant 1219 bgl+, preserved at -20° C., are first thawed to be reactivated during 10 min. at room temperature. They are then suspended in 250 μl of 50 mM buffer and together with the appropriate test solution and distilled water brought to a volume of 480 μl . This suspension is then pre-incubated over a time span of 10-15 minutes at 37° C. After that, the reaction is started by adding 20 μl of ONP-glucose (50 mM) (equivalent to a final concentration in the reaction batch of 2 mM). The reaction mixture is incubated over a time span of 5 minutes at 37° C. After the end of this reaction time the reaction is terminated by adding 1 ml of Na2 CO3 (0.5M). After a 2 minute centrifugation at 17,000×g the substrate transformations of the tested bacteria suspensions are photometrically determined at 405 nm.
The evaluation of the PTS test with ONP-glycosides is done by means of the toxicological characteristic quantity of the "efficient concentration", (the EC value). It is hereinunder understood with such a concentration of added toxic substance that a measurable parameter of an organism will be inhibited to a certain extent within a freely defined time span. The percentage of adverse effect of the parameter to be measured is indicated by the attached index.
The conversion of the registered percentage inhibitory values into EC values is carried out with the help of the gamma method (Johnson, F. H., Eyring, H. and Stover, B. J., 1974; The theory of rate processes in biology and medicine, John Wiley & Sons, New York: 1-385). With the aid of the O.D.405, registered in the PTS inhibition test, the quotient is formed from the ONP-glycoside cleavage output and the remaining ONP-glycoside cleavage. [formula] O.D.405 : Substrate transformation without toxic substance solution. D O.D.405 : Output of the substrate transformation after incubation with the toxic substance solution.
The gamma values hereby obtained are used against the employed concentration of toxic substance, in a double logarithmic representation. […]

[2] = tested on: E. coli mutant 1219bgl+ PTS; assay: ONP-glycoside cleavage in dependency on substrate concentration (Lineweaver-Burk); assay type: cell-based; settings: Lineweaver-Burk process
Experimental: Looking more closely into the ONP-glycoside cleavage in dependency on substrate concentration, we find the presence of saturation kinetics without substrate inhibition (FIG. 4). […] Since, when increasing the substrate concentration, there was no further velocity increase to be registered, the dosage of the substrate to be used, according to the invention, takes place in accord with a cost and efficiency weighting at 2 mM. When performing the PTS inhibition test, in accordance with the invention, it also turned out that the sensitivity of the test is clearly dependent on the kind of buffer used. It was particularly conspicuous that phosphate buffer has a clearly stimulating effect on the ONP-glycoside hydrolysis, whereas, on the other hand, when performing the inhibition test with heavy metals as toxic substances, the strongest inhibitory effects were to be registered when using the HEPES buffer. It should however be taken into account that a phosphate buffer in the presence of heavy metal salts is less suitable due to solubility problems that then might occur. Therefore when testing heavy metals, the HEPES buffer should preferably be chosen.

[3] = heavy metal ions as chlorides, HEPES buffer pH 6.5, 37° C., 5 min reaction
[4] = heavy metal ions as chlorides, HEPES buffer pH 6.5, 37° C., 5 min reaction, read-out: EC50
[5] = Escherichia coli, pH 6.5, read-out: EC10, organic solvents, 50 mM phosphate buffer pH 6.5
[6] = organic solvents, 50 mM phosphate buffer pH 6.5
[7] = reaction time 10 min, Beckmann, 1980

Question: For [Hg+2] [Hg^2+], which “Bioluminescent Inhibition Test EC50 (ppm)” value (Vibrio fischen; reaction time 5 min, Bulich et al., 1981) is on record?
Answer: 0.065 ppm

Question: What about the maximal inhibition ([1]; HEPES buffer pH 6.5) of the same compound?
Answer: about 70%

Question: And the EC50 [1, 3]?
Answer: 2.1 ppm

Question: And the pEC50 [1, 4]?
Answer: 4.99

Question: For O=[N+]([O-])c1ccccc1O[C@@H]1O[C@H](CO)[C@@H](O)[C@H](O)[C@H]1O [ONP-glycoside, 2-nitrophenyl-β-D-glucoside], which Km [2] is on record?
Answer: 2000 µM

Question: What about the maximal reaction velocity [2] of the same compound?
Answer: 42 nmol/min/mL

Question: What does the source list for ClC(Cl)Cl [Chloroform, chloroform]?
Answer: Bioluminescent Inhibition Test EC50 (ppm) (Vibrio fischen; vibrio fischeri luminescence): 1,168; IC50 ([1]; Escherichia coli): 1900 µg/mL (≈ 15.9 mM); pEC50 ([1]; Escherichia coli, pH 6.5): 1.80; IC10 [1, 5]: 720 µg/mL and 6 µM

Question: Which EC50 [1, 3] does the source give for [Cr+3] [Cr^3+] here?
Answer: 16 ppm

Question: With CCO [Ethanol, ethanol] as the compound, how does the “Bioluminescent Inhibition Test EC50 (ppm)” value (Vibrio fischen; vibrio fischeri luminescence) read?
Answer: 31,000

Question: What about the IC50 ([1]; Escherichia coli) of the same compound?
Answer: 33000 µg/mL (≈ 716 mM)

Question: And the IC10 [1, 5]?
Answer: 10500 µg/mL and 288 µM

Question: And the EC10 [1, 6]?
Answer: approx. 10,500 ppm

Question: For ClCCCl [Dichloroethane, dichloroethane], which “inhibition of ONP-glucose transformation” value ([1]; at approx. 3,500 ppm (approximative 35 μM as printed), phosphate buffer pH 6.5, no extrapolation to gamma values possible) is on record?
Answer: about 30%

Question: What does the source list for C1COCCO1 [Dioxan, dioxan]?
Answer: IC50 ([1]; Escherichia coli): 30000 µg/mL (≈ 340 mM); IC10 [1, 5]: 10000 µg/mL and 114 µM; EC10 [1, 6]: approx. 10,000 ppm

Question: With [Cu+2] [Cu^2+] as the compound, how does the “Bioluminescent Inhibition Test EC50 (ppm)” value (Vibrio fischen; [7]) read?
Answer: 16 ppm

Question: And the EC50 [1, 3]?
Answer: 11 ppm

Question: What about the pEC50 [1, 4] of the same compound?
Answer: 3.76

Question: With Cc1ccccc1 [Toluene, toluene] as the compound, how does the IC50 ([1]; Escherichia coli) read?
Answer: 35 µg/mL (≈ 0.38 mM)

Question: What about the pEC50 ([1]; Escherichia coli, pH 6.5) of the same compound?
Answer: 3.42

Question: Which results are given for CCCCCCCCCCCCOS(=O)(=O)O [SDS]?
Answer: IC50 ([1]; Escherichia coli): 13 µg/mL (≈ 0.0488 mM); pEC50 ([1]; Escherichia coli, pH 6.5): 4.35; IC10 ([1]; Escherichia coli, pH 6.5, read-out: EC10, detergents, 50 mM HEPES buffer pH 6.5): 5.5 µg/mL and ~19 µM

Question: Which “Bioluminescent Inhibition Test EC50 (ppm)” value (Vibrio fischen; reaction time 30 min, Beckmann, 1981) does the source give for [Pb+2] [Pb^2+] here?
Answer: 0.4 ppm

Question: And the EC50 [1, 3]?
Answer: 67 ppm

Question: And the EC10 ([1]; heavy metal ions as chlorides, HEPES buffer pH 6.5, 37° C., 5 min reaction, listed as Pb^+)?
Answer: 120 µM

Question: And the pEC50 [1, 4]?
Answer: 3.49

Question: For Triton X-100, which EC50 ([1]; detergents, 50 mM HEPES buffer pH 6.5) is on record?
Answer: 180 ppm

Question: With [Zn+2] [Zn^2+] as the compound, how does the “Bioluminescent Inhibition Test EC50 (ppm)” value (Vibrio fischen; [7]) read?
Answer: 25.4 ppm

Question: And the EC50 [1, 3]?
Answer: 8 ppm

Question: What about the pEC50 [1, 4] of the same compound?
Answer: 3.91

Question: Which results are given for [Ni+2] [Ni^2+]?
Answer: maximal inhibition ([1]; HEPES buffer pH 6.5): about 70%; EC50 [1, 3]: 4.5 ppm; pEC50 [1, 4]: 4.12

Question: What does the source list for Oc1ccccc1 [Phenol, phenol]?
Answer: Bioluminescent Inhibition Test EC50 (ppm) (Vibrio fischen; vibrio fischeri luminescence): 25; IC50 ([1]; Escherichia coli): 1400 µg/mL (≈ 14.9 mM); pEC50 ([1]; Escherichia coli, pH 6.5): 1.83; IC10 [1, 5]: 350 µg/mL and 3.7 µM

Question: What does the source list for [Cd+2] [Cd^2+]?
Answer: Bioluminescent Inhibition Test EC50 (ppm) (Vibrio fischen; [7]): 131 ppm; EC50 [1, 3]: 19 ppm; pEC50 [1, 4]: 3.77
